Measurements as given in ChEMBL document CHEMBL1151608, “Unusual cytotoxicities of 5-(acylethynyl)-1-(2-hydroxyethoxy)methyluracils” (Bioorg Med Chem Lett, 1996).

Experiments:
Assay type in all cases: functional, cell-based
CCRF-CEM = experiment: In vitro cytotoxic effect of compound was measured against CCRF-CEM human lymphoblastoid cells.
L1210 = experiment: In vitro cytotoxic effect of compound was measured against L1210/0 tumor cells in mouse
HT-29 = experiment: In vitro cytotoxic effect of compound was measured against HT-29 tumor cells.; conditions: Homo sapiens

Row | SMILES | IC50 (CCRF-CEM) [nM] | IC50 (L1210) [nM] | IC50 (HT-29) [nM]
1 | COc1ccc(C(=O)C#Cc2cn(COCCO)c(=O)[nH]c2=O)cc1 | 1600 | 1500 | 20000
2 | Cc1ccc(C(=O)C#Cc2cn(COCCO)c(=O)[nH]c2=O)cc1 | 700 | 900 | 8000
3 | Cc1ccccc1C(=O)C#Cc1cn(COCCO)c(=O)[nH]c1=O | 900 | 2200 | 25000
4 | Cc1cccc(C(=O)C#Cc2cn(COCCO)c(=O)[nH]c2=O)c1 | 600 | 700 | 14000
